Columns and labels:
[1] = test system: Huh7; assay: SRB cytotoxicity assay; format: cell-based, human; conditions: Homo sapiens, Huh-7, 72 h, 72 h treatment
Procedure: (§1) HepG2, FOCUS, Hep3B, Mahlavu, Huh7, Hep40, and PLC-PRF-5 hepatocellular carcinoma cells; MCF-7, MDA-MB-231, MDA-MB-468, SKBR3, and ZR-75 breast cancer cells; and normal-like epithelial MCF-10A breast cells were cultured in low-glucose Dulbecco’s modified Eagle’s medium (DMEM) (Biological Industries-BI) supplemented with 10% fetal bovine serum (FBS) (Gibco/Thermo Fisher Scientific), 2 mM L-Glutamine (Gibco/Thermo Fisher Scientific), 100 Units/mL Penicillin/Streptomycin, and 0.1 mM non-essential amino acid (Gibco/Thermo Fisher Scientific). SNU475 hepatocellular carcinoma cells were maintained in RPMI (Biological Industries-BI) supplemented with 10% fetal bovine serum (FBS) (Gibco/Thermo Fisher Scientific), L-Glutamine (Gibco/Thermo Fisher Scientific), and 100 Units/mL Penicillin/Streptomycin, while ZR-75 breast cancer cells were cultured RPMI (Biological Industries-BI) supplemented with 10% fetal bovine serum (FBS) (Gibco/Thermo Fisher Scientific), 1× sodium pyruvate, and %4.5 glucose. Normal-like MCF-10A breast cells were sustained in DMEM/HAM’S F12 (Hyclone) supplemented with 10% fetal bovine serum (FBS) (Gibco/Thermo Fisher Scientific), EGF (20 ng/mL), Hydrocortisone ([…]), cholera toxin (100 ng/mL), insulin (10 μg/mL), and 100 Units/mL Penicillin/Streptomycin. The cells were cultivated at 37 °C in a humidified incubator under 5% CO2.
(§2) Mahlavu, FOCUS, SNU475 (1000 cell/well in 150 μL/well); Huh7, MCF7 (2500 cell/well in 150 μL/well); HepG2, Hep3B, SKBR3 (3000 cell/well in 150 μL/well); PLC-PRF-5, Hep40 (5000 cell/well in 150 μL/well); MDA-MB-231, MDA-MB-468, MCF10A (6000 cell/well in 150 μL/well); and ZR-75 (7500 cell/well in 150 μL/well) were cultured in 96-well plates and were inoculated in an incubator for 24 hours. The compounds were dissolved in dimethyl sulfoxide (DMSO) (Sigma, St Louis, MO) as a 20 mM stock solution. The treatment of cells with the compounds was done in a concentration range starting from 40 to 2.5 μM. The compounds which were below 2.5 μM were tested in a concentration range from 2.5 to 0.15 μM. End of the 72h compound treatment, the cells were fixed using 10% (v/v) trichloroacetic acid (MERCK) for an hour and washed with ddH2O, and left for air-drying. The fixed plates were stained with 50 μL of sulforhodamine B (SRB) solution (Sigma) at RT for 10 min. To remove unbound SRB dye, acetic acid was used to wash cells three times and left for drying. The protein-bound SRB was solubilized with 10 mM Tris-base (Sigma) and their absorbance was measured with a 96-well plate reader at 515 nm wavelength (ELx800, Biotek). The IC50 values of compounds were calculated in comparison with control group DMSO. Data with R^2 values larger than 0.9 are considered significant.

[2] = test system: MCF7; assay: SRB cytotoxicity assay; format: cell-based, human; conditions: 72 h treatment
Procedure: as §1, §2

[3] = test system: Mahlavu; assay: SRB cytotoxicity assay; format: cell-based, human; conditions: 72 h treatment
Procedure: as §1, §2

| SMILES | IC50 [1] | IC50 ([2]; Homo sapiens, MCF7, 72 h) | melting point | IC50 [2] | IC50 ([3]; Homo sapiens, Mahlavu, 72 h) | IC50 [3] |
| --- | --- | --- | --- | --- | --- | --- |
| Cc1noc(C)c1COc1ccc(-c2noc(C)c2-c2ccc(Cl)cc2)cc1 [compound 39, 4-(4-Chlorophenyl)-3-(4-((3,5-dimethylisoxazol-4-yl)methoxy)phenyl)-5-methylisoxazole] | 3.7 µM | > 20 µM | 138.9 to 141.3 °C | – | – | – |
| Cc1cc(COc2ccc(-c3noc(C)c3-c3ccc(Cl)cc3)cc2)n(C)n1 [compound 40, 4-(4-Chlorophenyl)-3-(4-((1,3-dimethyl-1H-pyrazol-5-yl)methoxy)phenyl)-5-methylisoxazole] | 0.9 µM | 12.2 µM | 156.4 to 157.9 °C | – | – | – |
| Cc1onc(-c2ccc(OCc3cncn3C(C)C)cc2)c1-c1ccc(Cl)cc1 [compound 41, 4-(4-Chlorophenyl)-3-(4-((1-isopropyl-1H-imidazol-5-yl)methoxy)phenyl)-5-methylisoxazole] | 2.5 µM | 16.7 µM | 168.4 to 170.7 °C | – | – | – |
| Cc1onc(-c2ccc(OCc3ccc(C(F)(F)F)o3)cc2)c1-c1ccc(Cl)cc1 [compound 42, 4-(4-Chlorophenyl)-5-methyl-3-(4-((5-(trifluoromethyl)furan-2-yl)methoxy)phenyl) isoxazole] | 13.4 µM | 14 µM | 105.7 to 106.8 °C | – | – | – |
| Cc1ccccc1COc1ccc(-c2noc(C)c2-c2ccccc2Cl)cc1 [compound 44, 5-Methyl-4-(2-chlorophenyl)-3-(4-((2-methylbenzyl)oxy)phenyl)isoxazole] | > 20 µM | 9.9 µM | 103.8 to 104.4 °C | – | – | – |
| Cc1ccccc1COc1ccc(-c2noc(C)c2-c2ccc(F)cc2)cc1 [compound 45, 5-Methyl-4-(4-fluorophenyl)-3-(4-((2-methylbenzyl)oxy)phenyl)isoxazole] | 16.7 µM | > 20 µM | 119 to 120.5 °C | – | – | – |
| COc1ccc(-c2c(-c3ccc(OCc4ccccc4C)cc3)noc2C)cc1 [compound 46, 5-Methyl-4-(4-methoxyphenyl)-3-(4-((2-methylbenzyl)oxy)phenyl)isoxazole] | 8.9 µM | 12.8 µM | 121.3 to 122.7 °C | – | – | – |
| Cc1ccc(-c2c(-c3ccc(OCc4ccccc4C)cc3)noc2C)cc1 [compound 47, 5-Methyl-4-(4-methylphenyl)-3-(4-((2-methylbenzyl)oxy)phenyl)isoxazole] | 1.8 µM | 4.7 µM | 130.8 to 131.8 °C | – | – | – |
| Cc1ccccc1COc1ccc(-c2noc(C)c2-c2ccc(C#N)cc2)cc1 [compound 48, 5-Methyl-4-(4-cyanophenyl)-3-(4-((2-methylbenzyl)oxy)phenyl)isoxazole] | 6.7 µM | ≥ 20 µM | 135.3 to 137.1 °C | > 20 µM | – | – |
| Cc1ccccc1COc1ccc(-c2noc(C)c2-c2cccc(C(F)(F)F)c2)cc1 [compound 49, 5-Methyl-4-(3-trifluoromethylphenyl)-3-(4-((2-methylbenzyl)oxy)phenyl)isoxazole] | 19 µM | > 20 µM | 120.7 to 122.4 °C | – | – | – |
| Cc1ccccc1COc1ccc(-c2noc(C)c2-c2ccc(N)cc2)cc1 [compound 51, 5-Methyl-4-(4-aminophenyl)-3-(4-((2-methylbenzyl)oxy)phenyl)isoxazole] | 16.9 µM | 19.7 µM | 119.4 to 121.1 °C | – | – | – |
| Cc1ccccc1COc1ccc(-c2noc(C)c2-c2ccc(Cl)cc2Cl)cc1 [compound 53, 5-Methyl-4-(2,4-dichlorophenyl)-3-(4-((2-methylbenzyl)oxy)phenyl)isoxazole] | 8.2 µM | 19.2 µM | 98 to 98.4 °C | – | – | – |
| Cc1ccc(-c2c(-c3ccc(OCc4ccccc4C)cc3)noc2C)nc1 [compound 54, 5-Methyl-3-(4-((2-methylbenzyl)oxy)phenyl)-4-(5-methylpyridin-2-yl)isoxazole] | 6.4 µM | > 20 µM | 121.4 to 122.3 °C | – | – | – |
| Cc1ccccc1COc1ccc(-c2noc(C)c2-c2ccncc2)cc1 [compound 55, 5-Methyl-3-(4-((2-methylbenzyl)oxy)phenyl)-4-(pyridin-4-yl)isoxazole] | > 20 µM | > 20 µM | 128.5 to 129.3 °C | – | – | – |
| Cc1ccccc1COc1ccc(-c2noc(C)c2-c2ccc(Cl)cc2)c(F)c1 [compound 56, 4-(4-Chlorophenyl)-3-(2-fluoro-4-((2-methylbenzyl)oxy)phenyl)-5-methylisoxazole] | 2.25 µM | 9.53 µM | 96.1 to 98.3 °C | – | – | – |
| Cc1ccccc1COc1ccc(-c2noc(C)c2-c2ccc(Cl)cc2)cc1F [compound 57, 4-(4-Chlorophenyl)-3-(3-fluoro-4-((2-methylbenzyl)oxy)phenyl)-5-methylisoxazole] | 9.8 µM | > 20 µM | 108 to 110.2 °C | – | – | – |
| Cc1ccccc1CNc1ccc(-c2noc(C)c2-c2ccc(Cl)cc2)cc1 [compound 59, 4-(4-(4-Chlorophenyl)-5-methylisoxazol-3-yl)-N-(2-methylbenzyl)aniline] | 4 µM | ≥ 20 µM | 134.9 to 137 °C | > 20 µM | – | – |
| Cc1ccccc1COc1ccc(-c2onc(C)c2-c2ccc(Cl)cc2)cc1 [compound 60, 4-(4-Chlorophenyl)-3-methyl-5-(4-((2-methylbenzyl)oxy)phenyl)isoxazole] | 3.8 µM | ~19 µM | 153.8 to 154.9 °C | 19.6 µM | 9.4 µM | – |
| Cc1ccccc1COc1ccc(-c2oncc2-c2ccc(Cl)cc2)cc1 [compound 63, 4-(4-Chlorophenyl)-5-(4-((2-methylbenzyl)oxy)phenyl)isoxazole] | 1.5 µM | ≥ 20 µM | 115.3 to 117.3 °C | > 20 µM | ≥ 20 µM | 20.1 µM |
| Cc1nc(-c2ccc(OCc3ccccc3C)cc2)c(-c2ccc(Cl)cc2)s1 [compound 75, 5-(4-Chlorophenyl)-2-methyl-4-(4-((2-methylbenzyl)oxy)phenyl)thiazole] | > 20 µM | > 20 µM | 90.5 to 92.1 °C | – | > 20 µM | – |
| Cc1ccccc1COc1ccc(-n2nccc2-c2ccc(Cl)cc2)cc1 [compound 78, 5-(4-Chlorophenyl)-1-(4-((2-methylbenyl)oxy)phenyl)-1H-pyrazole] | > 20 µM | > 20 µM | 145.2 to 146.4 °C | – | > 20 µM | – |
| Cc1ccccc1COc1ccc(-c2ccnn2-c2ccc(Cl)cc2)nc1 [compound 86, 2-(1-(4-Chlorophenyl)-1H-pyrazol-5-yl)-5-((2-methylbenzyl)oxy)pyridine] | 2 µM | ≥ 20 µM | 108.4 to 110.4 °C | 21.7 µM | 7.1 µM | – |
| Cc1ccccc1COc1ccc(-c2ccnn2-c2ccc(Cl)cc2)cn1 [compound 87, 5-(1-(4-Chlorophenyl)-1H-pyrazol-5-yl)-2-((2-methylbenzyl)oxy)pyridine] | > 20 µM | > 20 µM | 126.5 to 127.8 °C | – | > 20 µM | – |
| Cc1ccccc1COc1ccc(-c2ccnn2-c2ccc(Cl)cc2)cc1F [compound 89, 1-(4-Chlorophenyl)-5-(3-fluoro-4-((2-methylbenzyl)oxy)phenyl)-1H-pyrazole] | > 20 µM | > 20 µM | 95 to 95.4 °C | – | > 20 µM | – |
| Cc1ccccc1C(=O)Nc1ccc(-c2ccnn2-c2ccc(Cl)cc2)cc1 [compound 91, N-(4-(1-(4-Chlorophenyl)-1H-pyrazol-5-yl)phenyl)-2-methylbenzamide] | > 20 µM | > 20 µM | 179.1 to 180 °C | – | > 20 µM | – |

Source: article PMC9583322, “Vicinal Diaryl-Substituted Isoxazole and Pyrazole Derivatives with In Vitro Growth Inhibitory and In Vivo Antitumor Activity” (ACS Omega, 2022)
